Experimental data reported in ChEMBL document CHEMBL6087449, “Identification of an Isoxazole Derivative as an Antitubercular Compound for Targeting the FadD Enzymes of Mycobacterium tuberculosis” (J Med Chem, 2025).
In brackets after ≈: the same amount, converted by molar mass. Activity calls are given as the source filed them. The rule behind the calls is not given here.

Assays:
[1] = tested on: Mycobacterium tuberculosis; assay: Antitubercular activity against Mycobacterium tuberculosis H37Rv assessed as inhibition of bacterial growth incubated for 5 days by Alamar Blue based assay; assay type: functional, organism-based; conditions: 120 h
Escherichia coli = assay: Antibacterial activity against Escherichia coli assessed as inhibition of bacterial growth upto 200 microg/ml incubated for 5 days by Alamar Blue based assay; assay type: functional, organism-based; conditions: dose <= 200.0 µg/ml, time 5.0 day
[2] = tested on: Mycolicibacterium smegmatis; assay: Antimycobacterial activity against Mycobacterium smegmatis assessed as inhibition of bacterial growth incubated for 5 days by Alamar Blue based assay; assay type: functional, organism-based; conditions: 120 h
[3] = tested on: Mycobacterium tuberculosis; assay: Antitubercular activity against Mycobacterium tuberculosis H37Rv assessed as inhibition of bacterial growth incubated for 5 days in presence of rifampicin by Alamar Blue based assay; assay type: functional, organism-based; conditions: time 5.0 day
[4] = tested on: Mycobacterium tuberculosis; assay: Antitubercular activity against Mycobacterium tuberculosis H37Rv assessed as inhibition of bacterial growth incubated for 5 days in presence of isoniazid by Alamar Blue based assay; assay type: functional, organism-based; conditions: time 5.0 day
[5] = target: T1, Long-chain-fatty-acid--AMP ligase FadD32 (Mycobacterium tuberculosis (strain ATCC 25618 / H37Rv)) (UniProt O53580); assay: Inhibition of Mycobacterium tuberculosis H37Rv recombinant FadD32 upto 200 uM in presence of lauric acid by Michaelis-Menten plot analysis
T1 sequence (whole entry): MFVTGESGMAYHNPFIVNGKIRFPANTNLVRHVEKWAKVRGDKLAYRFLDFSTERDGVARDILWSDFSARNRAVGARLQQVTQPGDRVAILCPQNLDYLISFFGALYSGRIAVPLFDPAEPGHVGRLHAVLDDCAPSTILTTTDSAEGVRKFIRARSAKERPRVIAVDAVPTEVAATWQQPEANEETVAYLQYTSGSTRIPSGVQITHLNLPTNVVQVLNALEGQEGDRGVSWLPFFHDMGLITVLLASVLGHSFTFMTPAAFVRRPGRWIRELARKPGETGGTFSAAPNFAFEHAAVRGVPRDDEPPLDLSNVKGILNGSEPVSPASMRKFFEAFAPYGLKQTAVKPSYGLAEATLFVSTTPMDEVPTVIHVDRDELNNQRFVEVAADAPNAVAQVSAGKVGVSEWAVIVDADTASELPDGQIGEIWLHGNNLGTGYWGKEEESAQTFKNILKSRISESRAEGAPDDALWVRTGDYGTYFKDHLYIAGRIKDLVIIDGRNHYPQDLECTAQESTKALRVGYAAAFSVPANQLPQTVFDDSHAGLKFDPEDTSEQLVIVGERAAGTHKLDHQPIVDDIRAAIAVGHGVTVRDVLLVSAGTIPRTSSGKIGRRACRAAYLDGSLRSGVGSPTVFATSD

[6] = target: T2, Long-chain-fatty-acid--AMP ligase FadD32 (Mycobacterium tuberculosis (strain ATCC 25618 / H37Rv), UniProt O53580); assay: Uncompetitive inhibition of Mycobacterium tuberculosis H37Rv recombinant FadD32 assessed as inhibition constant in presence of lauric acid by Lineweaver-burk plot analysis
T2 sequence (O53580 whole entry): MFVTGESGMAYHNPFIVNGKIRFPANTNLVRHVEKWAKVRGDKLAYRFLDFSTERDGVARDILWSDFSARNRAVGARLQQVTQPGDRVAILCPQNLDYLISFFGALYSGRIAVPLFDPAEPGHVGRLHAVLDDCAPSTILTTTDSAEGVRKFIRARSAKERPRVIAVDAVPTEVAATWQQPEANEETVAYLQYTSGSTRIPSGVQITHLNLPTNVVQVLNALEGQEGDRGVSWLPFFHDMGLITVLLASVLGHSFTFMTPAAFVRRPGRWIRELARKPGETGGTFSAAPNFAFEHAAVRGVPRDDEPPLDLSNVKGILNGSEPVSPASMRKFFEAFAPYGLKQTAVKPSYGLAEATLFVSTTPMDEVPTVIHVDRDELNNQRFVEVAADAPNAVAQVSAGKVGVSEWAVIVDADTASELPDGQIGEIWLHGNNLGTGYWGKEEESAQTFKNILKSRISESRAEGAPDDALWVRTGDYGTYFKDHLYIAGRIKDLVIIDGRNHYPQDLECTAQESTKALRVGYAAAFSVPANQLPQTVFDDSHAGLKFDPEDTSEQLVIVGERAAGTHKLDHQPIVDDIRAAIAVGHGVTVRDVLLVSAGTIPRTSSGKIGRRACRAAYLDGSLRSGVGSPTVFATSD

[7] = target: T2, Long-chain-fatty-acid--AMP ligase FadD32; assay: Partial noncompetitive inhibition of Mycobacterium tuberculosis H37Rv recombinant FadD32 assessed as inhibition constant in presence of ATP by Lineweaver-burk plot analysis
[8] = target: T3, Long-chain-fatty-acid--AMP ligase FadD28 (Mycobacterium tuberculosis) (UniProt P9WQ59); assay: Inhibition of Mycobacterium tuberculosis H37Rv recombinant fadD28 at 200 uM relative to control
T3 sequence (whole entry): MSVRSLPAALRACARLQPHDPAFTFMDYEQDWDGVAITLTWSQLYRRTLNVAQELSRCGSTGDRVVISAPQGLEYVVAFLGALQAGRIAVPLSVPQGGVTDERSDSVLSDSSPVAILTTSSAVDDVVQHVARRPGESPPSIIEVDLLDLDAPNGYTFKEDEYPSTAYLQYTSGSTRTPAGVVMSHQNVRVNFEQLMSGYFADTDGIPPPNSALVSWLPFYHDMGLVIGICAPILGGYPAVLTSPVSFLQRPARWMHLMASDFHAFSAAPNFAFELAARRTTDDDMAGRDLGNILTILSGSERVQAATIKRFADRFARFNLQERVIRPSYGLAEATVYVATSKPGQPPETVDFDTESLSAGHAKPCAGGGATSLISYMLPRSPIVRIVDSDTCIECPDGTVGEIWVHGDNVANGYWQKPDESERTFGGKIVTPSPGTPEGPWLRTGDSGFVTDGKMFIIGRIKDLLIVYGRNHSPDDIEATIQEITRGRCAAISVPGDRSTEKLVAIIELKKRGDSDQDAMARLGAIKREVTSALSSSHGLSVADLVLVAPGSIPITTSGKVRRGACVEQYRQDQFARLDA

[9] = target: T1, Long-chain-fatty-acid--AMP ligase FadD32 (Mycobacterium tuberculosis (strain ATCC 25618 / H37Rv)); assay: Inhibition of Mycobacterium tuberculosis H37Rv recombinant fadD32 at 200 uM relative to control
RAW264.7 = assay: Cytotoxicity against mouse RAW264.7 cells assessed as cell viability at 25 microg/ml incubated for 24 hrs by MTT assay; assay type: toxicity, cell-based; conditions: raw264.7, 24 h, dose 25 µg/ml
THP-1 = assay: Cytotoxicity against PMA-differentiated human THP-1 cells assessed as reduction in cell viability at 25 microg/ml incubated for 24 hrs by MTT assay; assay type: toxicity, cell-based; conditions: thp-1, 24 h, dose 25 µg/ml
[10] = tested on: Mycobacterium tuberculosis; assay: Antitubercular activity against Mycobacterium tuberculosis infected in mouse RAW264.7 cells assessed as reduction in colony forming units at 5 to 9 microg/ml incubated for 48 hrs; assay type: functional, organism-based; conditions: dose 5-9 µg/ml
[11] = tested on: Mycobacterium tuberculosis; assay: Antitubercular activity against Mycobacterium tuberculosis infected in human THP-1 cells assessed as reduction in colony forming units at 5 to 9 microg/ml incubated for 48 hrs; assay type: functional, organism-based; conditions: dose 5-9 µg/ml
[12] = tested on: Mycobacterium tuberculosis; assay: Antitubercular activity against Mycobacterium tuberculosis infected in mouse RAW264.7 cells assessed as reduction in colony forming units at 5 to 9 microg/ml incubated for 48 hrs in presence of rifampin; assay type: functional, organism-based; conditions: dose 5-9 µg/ml
[13] = tested on: Mycobacterium tuberculosis; assay: Antitubercular activity against Mycobacterium tuberculosis infected in mouse RAW264.7 cells assessed as reduction in colony forming units at 5 to 9 microg/ml incubated for 48 hrs in presence of isoniazid; assay type: functional, organism-based; conditions: dose 5-9 µg/ml
[14] = tested on: Mycobacterium tuberculosis; assay: Antitubercular activity against Mycobacterium tuberculosis infected in mouse RAW264.7 cells assessed as reduction in colony forming units at 5 to 9 microg/ml incubated for 48 hrs in presence of ethambutol; assay type: functional, organism-based; conditions: dose 5-9 µg/ml
[15] = tested on: Mycobacterium tuberculosis; assay: Antitubercular activity against Mycobacterium tuberculosis infected in human THP-1 cells assessed as reduction in colony forming units at 5 to 9 microg/ml incubated for 48 hrs in presence of rifampin; assay type: functional, organism-based; conditions: dose 5-9 µg/ml
[16] = tested on: Mycobacterium tuberculosis; assay: Antitubercular activity against Mycobacterium tuberculosis infected in human THP-1 cells assessed as reduction in colony forming units at 5 to 9 microg/ml incubated for 48 hrs in presence of isoniazid; assay type: functional, organism-based; conditions: dose 5-9 µg/ml
[17] = tested on: Mycobacterium tuberculosis; assay: Antitubercular activity against Mycobacterium tuberculosis infected in human THP-1 cells assessed as reduction in colony forming units at 5 to 9 microg/ml incubated for 48 hrs in presence of ethambutol; assay type: functional, organism-based; conditions: dose 5-9 µg/ml
[18] = tested on: Mycobacterium tuberculosis; assay: Downregulation of esxH mRNA expression in Mycobacterium tuberculosis assessed as fold change by qRT-PCR analysis; assay type: functional
[19] = tested on: Mycobacterium tuberculosis; assay: Downregulation of papA mRNA expression in Mycobacterium tuberculosis assessed as fold change by qRT-PCR analysis; assay type: functional
[20] = tested on: Mycobacterium tuberculosis; assay: Downregulation of hspX mRNA expression in Mycobacterium tuberculosis assessed as fold change by qRT-PCR analysis; assay type: functional
[21] = tested on: Mycobacterium tuberculosis; assay: Downregulation of fadD28 mRNA expression in Mycobacterium tuberculosis assessed as fold change by qRT-PCR analysis; assay type: functional
[22] = tested on: Mycobacterium tuberculosis; assay: Downregulation of fadD32 mRNA expression in Mycobacterium tuberculosis assessed as fold change by qRT-PCR analysis; assay type: functional
[23] = tested on: Mycobacterium tuberculosis; assay: Downregulation of efpA mRNA expression in Mycobacterium tuberculosis assessed as fold change by qRT-PCR analysis; assay type: functional
[24] = tested on: Mycobacterium tuberculosis; assay: Downregulation of murE mRNA expression in Mycobacterium tuberculosis assessed as fold change by qRT-PCR analysis; assay type: functional
[25] = tested on: Mycobacterium tuberculosis; assay: Downregulation of ctpC mRNA expression in Mycobacterium tuberculosis assessed as fold change by qRT-PCR analysis; assay type: functional
[26] = tested on: Mycobacterium tuberculosis; assay: Downregulation of groES mRNA expression in Mycobacterium tuberculosis assessed as fold change by qRT-PCR analysis; assay type: functional
[27] = tested on: Mycobacterium tuberculosis; assay: Downregulation of IspD mRNA expression in Mycobacterium tuberculosis assessed as fold change by qRT-PCR analysis; assay type: functional
[28] = tested on: Mycobacterium tuberculosis; assay: Downregulation of PKS13 mRNA expression in Mycobacterium tuberculosis assessed as fold change by qRT-PCR analysis; assay type: functional
[29] = tested on: Mycobacterium tuberculosis; assay: Downregulation of CarD mRNA expression in Mycobacterium tuberculosis assessed as fold change by qRT-PCR analysis; assay type: functional
[30] = Toxicity in BALB/c mouse assessed as animal survival at 2.5 mg/kg, ip measured for 14 days; assay type: organism-based; conditions: in vivo, 336 h, time 14 day
[31] = Toxicity in BALB/c mouse assessed as body weight loss at 2.5 mg/kg, ip measured for 14 days; assay type: organism-based; conditions: in vivo, 336 h, time 14 day
[32] = Toxicity in BALB/c mouse assessed as change in SGPT level in serum at 2.5 mg/kg, ip measured for 14 days; assay type: organism-based; conditions: in vivo, 336 h, time 14 day
[33] = Toxicity in BALB/c mouse assessed as change in SGOT level in serum at 2.5 mg/kg, ip measured for 14 days; assay type: organism-based; conditions: in vivo, 336 h, time 14 day
[34] = Toxicity in BALB/c mouse assessed as change in creatine level in serum at 2.5 mg/kg, ip measured for 14 days; assay type: organism-based; conditions: in vivo, 336 h, time 14 day
[35] = Toxicity in BALB/c mouse assessed as change in ALP level in serum at 2.5 mg/kg, ip measured for 14 days; assay type: organism-based; conditions: in vivo, 336 h, time 14 day
[36] = Toxicity in BALB/c mouse assessed as change in BUN level in serum at 2.5 mg/kg, ip measured for 14 days; assay type: organism-based; conditions: in vivo, 336 h, time 14 day
[37] = tested on: Mycobacterium tuberculosis; assay: Antitubercular activity against Mycobacterium tuberculosis H37Rv infected in BALB/c mouse chronic model assessed as reduction in tubercular granulomas at 2.5 mg/kg, ip measured after 4 weeks by H and E staining based analysis; assay type: functional, organism-based
[38] = tested on: Mycobacterium tuberculosis; assay: Antitubercular activity against Mycobacterium tuberculosis H37Rv infected in BALB/c mouse chronic model assessed as reduction in reduction in mycobacterial burden in lung at 2.5 mg/kg, ip measured after 21 to 25 days by H and E staining based analysis; assay type: functional, organism-based; conditions: time 21-25 day

Oc1c(Br)cc(Br)cc1-c1cc(C(F)(F)F)no1
IC50 [1]: 4.8 µg/mL (≈ 12.4 µM) | Activity (Escherichia coli): inactive | IC50 [2]: 20.8 µg/mL (≈ 53.8 µM) | Activity [3]: Active | Activity [4]: Active | inhibition [5]: Active | Ki [6]: 48.1 µM | Ki [7]: 55.3 µM | inhibition [8]: 50% | inhibition [9]: 95% | Activity (RAW264.7): Non-toxic | Activity (THP-1): Non-toxic | Activity [10]: Active | Activity [11]: Active | Activity [12]: Active | Activity [13]: Active | Activity [14]: Active | Activity [15]: Active | Activity [16]: Active | Activity [17]: Active | fold change (FC) [18]: 2 | fold change (FC) [19]: 2 | fold change (FC) [20]: 2 | fold change (FC) [21]: 2 | fold change (FC) [22]: 2 | fold change (FC) [23]: 2 | fold change (FC) [24]: 2 | fold change (FC) [25]: 2 | fold change (FC) [26]: 2 | fold change (FC) [27]: 2 | fold change (FC) [28]: 2 | fold change (FC) [29]: 2 | Activity [30]: Non-toxic | Activity [31]: Non-toxic | Activity [32]: Non-toxic | Activity [33]: Non-toxic | Activity [34]: Non-toxic | Activity [35]: Non-toxic | Activity [36]: Non-toxic | Activity [37]: Active | Activity [38]: Active
